Laboratory results: PubChem BioAssay AID1963434 (Molecular Pharmacology Branch, DTP, NCI, 2024)

System: 755483-174-R-J1-PDC complex spheroid growth, percent test/control
Test: Anticancer human tumor 755483-174-R-J1-PDC patient-derived rhabdomyosarcoma cell line growth inhibition [Asc]
Settings: for IC50: curve of first compound; for viability, T/C: stronger effect = lower value
How it was run: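 Tumor cells were grown as complex spheroids with human endothelial cells (HUVEC) and human mesenchymal stem cells as stroma. Agents were tested alone and in combination, in half-log steps down from the clinical Cmax, or from 10 microM where Cmax was unknown.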

[1] = second compound 0.03 µM, first compound 0.00316 µM
[2] = second compound 0.03 µM, first compound 0.01 µM
[3] = second compound 0.03 µM, first compound 0.0316 µM
[4] = second compound 0.03 µM, first compound 0.1 µM
[5] = second compound 0.0949 µM, first compound 0.00316 µM
[6] = second compound 0.0949 µM, first compound 0.01 µM
[7] = second compound 0.0949 µM, first compound 0.0316 µM
[8] = second compound 0.0949 µM, first compound 0.1 µM
[9] = second compound 0.3 µM, first compound 0.00316 µM
[10] = second compound 0.3 µM, first compound 0.01 µM
[11] = second compound 0.3 µM, first compound 0.0316 µM
[12] = second compound 0.3 µM, first compound 0.1 µM
[13] = second compound 0.949 µM, first compound 0.00316 µM
[14] = second compound 0.949 µM, first compound 0.01 µM
[15] = second compound 0.949 µM, first compound 0.0316 µM
[16] = second compound 0.949 µM, first compound 0.1 µM
[17] = second compound 3 µM, first compound 0.00316 µM
[18] = second compound 3 µM, first compound 0.01 µM
[19] = second compound 3 µM, first compound 0.0316 µM
[20] = second compound 3 µM, first compound 0.1 µM
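Further: spheroids exposed to compounds for seven days before readout.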

## COc1c(OCCCN2CCOCC2)ccc2c3n(c(=NC(=O)c4cnc(N)nc4)nc12)CCN3 + CCN1C(C(=O)NC23CCC(C(=O)O)(CC2)CC3)C(c2cccc(Cl)c2F)C2(C(=O)Nc3cc(Cl)ccc32)C12CCCCC2
Second compound 0.03 µM
  IC50: 31.3 nM
Second compound 0.0949 µM
  IC50: 13.7 nM
Second compound 0.3 µM
  IC50: 31.2 nM
Second compound 0.949 µM
  IC50: 26.2 nM
Second compound 3 µM
  IC50: 41.7 nM
[1]
  viability, T/C: 70.7%
[2]
  viability, T/C: 70.5%
[3]
  viability, T/C: 49.1%
[4]
  viability, T/C: 19.2%
Second compound 0.03 µM, first compound 0.316 µM
  viability, T/C: 8.52%
Second compound 0.03 µM, first compound 1 µM
  viability, T/C: 6.46%
[5]
  viability, T/C: 75.5%
[6]
  viability, T/C: 39.5%
[7]
  viability, T/C: 48.5%
[8]
  viability, T/C: 25.9%
Second compound 0.0949 µM, first compound 0.316 µM
  viability, T/C: 25.9%
Second compound 0.0949 µM, first compound 1 µM
  viability, T/C: 7.18%
[9]
  viability, T/C: 82.1%
[10]
  viability, T/C: 89.5%
[11]
  viability, T/C: 46.3%
[12]
  viability, T/C: 22.7%
Second compound 0.3 µM, first compound 0.316 µM
  viability, T/C: 12.7%
Second compound 0.3 µM, first compound 1 µM
  viability, T/C: 5.77%
[13]
  viability, T/C: 75.7%
[14]
  viability, T/C: 64.9%
[15]
  viability, T/C: 45.9%
[16]
  viability, T/C: 30.7%
Second compound 0.949 µM, first compound 0.316 µM
  viability, T/C: 12.1%
Second compound 0.949 µM, first compound 1 µM
  viability, T/C: 9.33%
[17]
  viability, T/C: 53.2%
[18]
  viability, T/C: 64.1%
[19]
  viability, T/C: 59.9%
[20]
  viability, T/C: 21.3%
Second compound 3 µM, first compound 0.316 µM
  viability, T/C: 13.8%
Second compound 3 µM, first compound 1 µM
  viability, T/C: 7.35%

## NC(=O)C(=Cn1cnc(-c2cc(C(F)(F)F)cc(C(F)(F)F)c2)n1)c1cncnc1 + CCN1C(C(=O)NC23CCC(C(=O)O)(CC2)CC3)C(c2cccc(Cl)c2F)C2(C(=O)Nc3cc(Cl)ccc32)C12CCCCC2
Second compound 0.03 µM
  IC50: 4.97 nM
Second compound 0.0949 µM
  IC50: 3.99 nM
Second compound 0.3 µM
  IC50: 6.47 nM
Second compound 0.949 µM
  IC50: 5.41 nM
Second compound 3 µM
  IC50: 3.15 nM
Second compound 0.03 µM, first compound 0.000949 µM
  viability, T/C: 92%
Second compound 0.03 µM, first compound 0.003 µM
  viability, T/C: 71.4%
Second compound 0.03 µM, first compound 0.00949 µM
  viability, T/C: 22.4%
Second compound 0.03 µM, first compound 0.03 µM
  viability, T/C: 12.8%
Second compound 0.03 µM, first compound 0.0949 µM
  viability, T/C: 7.75%
Second compound 0.03 µM, first compound 0.3 µM
  viability, T/C: 7.18%
Second compound 0.0949 µM, first compound 0.000949 µM
  viability, T/C: 84%
Second compound 0.0949 µM, first compound 0.003 µM
  viability, T/C: 56%
Second compound 0.0949 µM, first compound 0.00949 µM
  viability, T/C: 31.7%
Second compound 0.0949 µM, first compound 0.03 µM
  viability, T/C: 14.7%
Second compound 0.0949 µM, first compound 0.0949 µM
  viability, T/C: 8.83%
Second compound 0.0949 µM, first compound 0.3 µM
  viability, T/C: 5.38%
Second compound 0.3 µM, first compound 0.000949 µM
  viability, T/C: 74.2%
Second compound 0.3 µM, first compound 0.003 µM
  viability, T/C: 75.5%
Second compound 0.3 µM, first compound 0.00949 µM
  viability, T/C: 37.6%
Second compound 0.3 µM, first compound 0.03 µM
  viability, T/C: 13.3%
Second compound 0.3 µM, first compound 0.0949 µM
  viability, T/C: 7.32%
Second compound 0.3 µM, first compound 0.3 µM
  viability, T/C: 4.64%
Second compound 0.949 µM, first compound 0.000949 µM
  viability, T/C: 83.9%
Second compound 0.949 µM, first compound 0.003 µM
  viability, T/C: 66.7%
Second compound 0.949 µM, first compound 0.00949 µM
  viability, T/C: 34.4%
Second compound 0.949 µM, first compound 0.03 µM
  viability, T/C: 11.9%
Second compound 0.949 µM, first compound 0.0949 µM
  viability, T/C: 8.43%
Second compound 0.949 µM, first compound 0.3 µM
  viability, T/C: 5.55%
Second compound 3 µM, first compound 0.000949 µM
  viability, T/C: 72.8%
Second compound 3 µM, first compound 0.003 µM
  viability, T/C: 49.2%
Second compound 3 µM, first compound 0.00949 µM
  viability, T/C: 32.9%
Second compound 3 µM, first compound 0.03 µM
  viability, T/C: 16%
Second compound 3 µM, first compound 0.0949 µM
  viability, T/C: 5.81%
Second compound 3 µM, first compound 0.3 µM
  viability, T/C: 6.67%

## NC1CCC(NC2CC2c2ccccc2)CC1 (stereo not given) + CCN1C(C(=O)NC23CCC(C(=O)O)(CC2)CC3)C(c2cccc(Cl)c2F)C2(C(=O)Nc3cc(Cl)ccc32)C12CCCCC2
Second compound 0.03 µM
  IC50: > 100 nM
Second compound 0.0949 µM
  IC50: > 100 nM
Second compound 0.3 µM
  IC50: > 100 nM
Second compound 0.949 µM
  IC50: > 100 nM
Second compound 3 µM
  IC50: > 100 nM
Second compound 0.03 µM, first compound 0.000316 µM
  viability, T/C: 93.2%
Second compound 0.03 µM, first compound 0.001 µM
  viability, T/C: 67.1%
[1]
  viability, T/C: 129%
[2]
  viability, T/C: 77.7%
[3]
  viability, T/C: 87%
[4]
  viability, T/C: 65.3%
Second compound 0.0949 µM, first compound 0.000316 µM
  viability, T/C: 90%
Second compound 0.0949 µM, first compound 0.001 µM
  viability, T/C: 100%
[5]
  viability, T/C: 93.2%
[6]
  viability, T/C: 96.4%
[7]
  viability, T/C: 85.1%
[8]
  viability, T/C: 68.8%
Second compound 0.3 µM, first compound 0.000316 µM
  viability, T/C: 110%
Second compound 0.3 µM, first compound 0.001 µM
  viability, T/C: 105%
[9]
  viability, T/C: 112%
[10]
  viability, T/C: 87.3%
[11]
  viability, T/C: 95.1%
[12]
  viability, T/C: 112%
Second compound 0.949 µM, first compound 0.000316 µM
  viability, T/C: 108%
Second compound 0.949 µM, first compound 0.001 µM
  viability, T/C: 103%
[13]
  viability, T/C: 92%
[14]
  viability, T/C: 98.5%
[15]
  viability, T/C: 78.3%
[16]
  viability, T/C: 88.5%
Second compound 3 µM, first compound 0.000316 µM
  viability, T/C: 92.2%
Second compound 3 µM, first compound 0.001 µM
  viability, T/C: 94%
[17]
  viability, T/C: 90.2%
[18]
  viability, T/C: 61.6%
[19]
  viability, T/C: 86.6%
[20]
  viability, T/C: 88.5%
